From patent publication US6825340B2, “Methods and reagents for inactivating ribonucleases” (Ambion, Inc., priority 1998, dated 2004)

Tests used:
[1] = test system: RNase mixture (RNase A, RNase 1, RNase T1); experiment: Non-isotopic RNase inactivation assay (mouse total RNA, agarose gel); format: biochemical, human, E. coli and a fungus
Text: The inventors routinely perform assays on RNA designed to assess RNase activity in a sample. Two different assays are typically used for the detection of ribonuclease activity, non-isotopic and isotopic. […] In both assays, the inactivation process is typically performed on a mixture of three different ribonucleases: RNase A, RNase 1, and RNase T1. Each ribonuclease is purified from a different species: […], E. coli and a fungus, respectively. The three RNases are very different from each other in their origin, substrate specificity and protein sequence. In this way, the inactivation process can test three completely different but well characterized ribonucleases. The standard stock RNase mixture employed in the following examples is prepared by combining 1 μl RNase 1 (100 U/μl; Ambion), 1 μl RNase cocktail (RNase A, 0.5 U/μl; RNase T1, 20 U/μl, Ambion) and 98 μl water. The non-isotopic assay uses total RNA isolated from mouse as the substrate for the RNase mixture. […] A quantity of 4 μg of total RNA isolated from mouse liver or brain was dissolved in an aqueous solution, usually water or 1 mM sodium citrate (pH 6.6). The treated ribonuclease sample was added to the total RNA and then incubated at 37° C. for 1 or 16 hours, depending on the sensitivity desired for the assay. After incubation, the RNA was fractionated in a formaldehyde 1% agarose gel. The RNA was detected by staining with ethidium bromide and then illuminating the gel with ultraviolet light. The RNA fluoresces in the gel. Untreated total RNA was also fractionated as a control with the test samples for comparative purposes. […] Intact total RNA has two major bands produced by the 28S and 18S ribosomal RNA. […] The RNase cocktail was made to various concentrations in different buffers in different DTT concentrations and incubated at 37° C. or 60° C. for 20 minutes. Total mouse RNA was added to the treated RNase mixture and incubated at 37° C. for one hour, fractionated in a formaldehyde denaturing 1% agarose gel and the RNA visualized by ethidium bromide staining and UV fluorescence.

[2] = test system: AMV reverse transcriptase; experiment: Reverse transcription reaction (RETROscript kit), dCTP[α-32P] incorporation; format: biochemical; conditions: 20 mM reducing reagent
Method: (§1) FIG. 2. […] Reverse transcriptions were performed using the RETROscript™ kit (Ambion, Inc.). Mouse total RNA in DEPC-treated water was reverse transcribed with either MMLV or AMV reverse transcriptase in the presence or absence of 20 mM DTT. dCTP[α^32P] was included in the reactions to measure the efficiency of reverse transcription. Following incubation at 42° C. for 1 h, 5 μl of each reaction was subjected to TCA precipitation to measure the amount of dCTP[α^32P] incorporated into cDNA by reverse transcription.
(§2) The reverse transcription reactions were performed using the RETROscript™ kit (Ambion, Inc.). The following were assembled with or without 20 mM of the reducing reagents in a final volume of 19 μl: dNTPs (0.5 mM each), oligo dT (5 μM), 0.4 μl dCTP[α-^32p] (3000 Ci/mmol), 10 mM Tris-HCl (pH 8.3): 50 mM KCl: 1.5 mM MgCl2, mouse brain total RNA (4 μg). The reaction mixtures were incubated at 65° C. for 10 minutes. 1 μl (100 units) of AMV or MMLV reverse transcriptase were added and then the reactions were incubated at 42° C. for 1 hour. Reverse transcription by either enzyme was not inhibited by DTT (FIG. 2) or by DTE or β-mercaptoethanol.

[3] = target: T1, MMLV reverse transcriptase (Moloney murine leukemia virus, UniProt P03355); experiment: as above; format: biochemical; conditions: 20 mM reducing reagent
T1 construct: purchased Ambion, Inc
Method: as §1, §2

SP6 RNA polymerase = target: T2, SP6 RNA polymerase (Enterobacteria phage SP6, UniProt P06221); experiment: In vitro transcription reaction (MAXIscript kit), UTP[α-32P] incorporation; format: biochemical; conditions: 20 mM reducing reagent
T2 construct: purchased Ambion, Inc
T2 sequence (P06221 1-874): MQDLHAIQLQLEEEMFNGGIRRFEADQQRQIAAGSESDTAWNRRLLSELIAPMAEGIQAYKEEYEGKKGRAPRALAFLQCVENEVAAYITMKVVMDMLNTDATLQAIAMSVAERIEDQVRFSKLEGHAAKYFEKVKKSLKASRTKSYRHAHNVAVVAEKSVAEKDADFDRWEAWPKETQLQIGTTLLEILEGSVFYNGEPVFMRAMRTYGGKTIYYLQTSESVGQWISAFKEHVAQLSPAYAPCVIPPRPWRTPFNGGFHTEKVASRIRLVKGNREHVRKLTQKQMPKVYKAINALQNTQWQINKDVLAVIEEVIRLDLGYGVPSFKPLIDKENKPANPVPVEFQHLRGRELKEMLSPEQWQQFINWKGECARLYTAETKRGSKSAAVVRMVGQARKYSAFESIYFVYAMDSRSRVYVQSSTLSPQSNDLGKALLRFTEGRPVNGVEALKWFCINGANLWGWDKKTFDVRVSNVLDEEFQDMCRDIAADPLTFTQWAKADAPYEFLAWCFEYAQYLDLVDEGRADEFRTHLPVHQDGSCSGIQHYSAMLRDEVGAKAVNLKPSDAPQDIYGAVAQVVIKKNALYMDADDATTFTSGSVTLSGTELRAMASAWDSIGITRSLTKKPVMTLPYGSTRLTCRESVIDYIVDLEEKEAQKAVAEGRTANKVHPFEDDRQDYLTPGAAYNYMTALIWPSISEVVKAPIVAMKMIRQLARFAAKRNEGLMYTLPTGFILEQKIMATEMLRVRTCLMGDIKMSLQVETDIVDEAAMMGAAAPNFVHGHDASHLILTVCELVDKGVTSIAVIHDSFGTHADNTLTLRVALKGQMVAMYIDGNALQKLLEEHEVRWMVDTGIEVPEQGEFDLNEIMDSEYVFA
Method: (§3) FIG. 3. […] Transcriptions were performed with T7, T3 and SP6 RNA polymerase in the presence and absence of 20 mM DTT. For each RNA polymerase reaction, pTRI-Xef DNA was the template and UTP[α^32P] was included to measure the efficiency of transcription. Duplicates were performed for each reaction. TCA precipitations were performed on each transcription reaction to measure the percent of the UTP[α^32P] incorporated into RNA.
(§4) The transcription reactions were based on the MAXIscript™ transcription kit (Ambion, Inc.). The following were assembled with or without 20 mM reducing reagent in a final volume of 18 μl: NTPs (0.5 mM each), 1 μg linearized DNA template, 2 μl 10 × transcription buffer, and 0.2 μl UTP [α-^32P] (800 Ci/mmol). The reaction mixtures were incubated 60° C. for 10 minutes and then 2 μl of the either SP6, T7 or T3 RNA polymerase (10 units/μl) were added to the reactions, incubated 30° C. for 60 minutes and then TCA precipitated to assess the incorporation of the radioactive label.

T3 RNA polymerase = target: T3, T3 RNA polymerase (Enterobacteria phage T3, UniProt P07659); experiment: as above; format: biochemical; conditions: 20 mM reducing reagent
T3 construct: purchased Ambion, Inc
Method: as §3, §4

T7 RNA polymerase = target: T4, T7 RNA polymerase (Escherichia phage T7, UniProt P00573); experiment: as above; format: biochemical; conditions: 20 mM reducing reagent
T4 construct: purchased Ambion, Inc
T4 sequence (P00573 whole entry): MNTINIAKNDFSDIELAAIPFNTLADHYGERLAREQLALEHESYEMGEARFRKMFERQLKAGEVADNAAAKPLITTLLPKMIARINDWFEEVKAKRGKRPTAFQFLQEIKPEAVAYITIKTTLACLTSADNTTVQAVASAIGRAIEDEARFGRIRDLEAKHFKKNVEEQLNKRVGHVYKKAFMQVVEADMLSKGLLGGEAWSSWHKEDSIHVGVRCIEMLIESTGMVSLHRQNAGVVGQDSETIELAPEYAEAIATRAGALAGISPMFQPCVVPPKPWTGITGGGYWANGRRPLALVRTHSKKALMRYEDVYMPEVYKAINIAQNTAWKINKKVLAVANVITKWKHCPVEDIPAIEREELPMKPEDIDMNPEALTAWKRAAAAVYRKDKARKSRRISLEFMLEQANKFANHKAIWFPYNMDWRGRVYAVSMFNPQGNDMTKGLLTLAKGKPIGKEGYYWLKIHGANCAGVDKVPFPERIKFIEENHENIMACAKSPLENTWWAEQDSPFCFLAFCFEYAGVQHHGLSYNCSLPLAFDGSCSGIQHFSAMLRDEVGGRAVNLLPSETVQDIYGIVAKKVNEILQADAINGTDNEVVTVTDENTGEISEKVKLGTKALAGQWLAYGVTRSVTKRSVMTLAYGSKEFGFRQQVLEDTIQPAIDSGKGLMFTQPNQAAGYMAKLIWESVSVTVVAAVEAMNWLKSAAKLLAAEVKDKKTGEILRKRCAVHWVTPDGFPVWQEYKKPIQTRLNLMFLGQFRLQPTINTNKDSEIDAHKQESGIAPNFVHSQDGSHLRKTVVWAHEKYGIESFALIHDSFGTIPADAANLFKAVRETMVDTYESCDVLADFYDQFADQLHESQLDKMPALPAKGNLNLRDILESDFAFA
Method: as §3, §4

DNase I = DNase I (Bos taurus, UniProt P00639); experiment: DNase I activity after reducing/heat treatment, plasmid DNA degradation; format: biochemical; conditions: 20 mM reducing reagent in water; DNase I 0.4 units/μl; 60° C. for 20 minutes
Sequence of DNase I (P00639 23-282): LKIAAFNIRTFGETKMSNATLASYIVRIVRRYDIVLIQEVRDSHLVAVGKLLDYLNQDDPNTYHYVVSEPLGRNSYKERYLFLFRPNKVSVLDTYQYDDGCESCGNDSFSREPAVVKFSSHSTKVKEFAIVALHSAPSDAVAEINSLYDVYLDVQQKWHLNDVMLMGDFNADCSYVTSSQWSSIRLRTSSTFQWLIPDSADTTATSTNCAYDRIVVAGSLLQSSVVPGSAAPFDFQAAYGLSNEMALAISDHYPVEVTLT
Method: DNase I is commonly used to degrade contaminating DNA in RNA preparations. To test whether the inactivation method affected DNase I activity, DNase I (final concentration of 0.4 units/μl) was added to water containing 20 mM DTT, DTE or β-mercaptoethanol. The mixture was incubated at 60° C. for 20 minutes. After the heat treatment, the DNase I activity was tested by incubating the treated DNase I with plasmid DNA (0.2 μg/μl ) at 37° C. for one hour followed by electrophoresis in a 1% agarose gel.

[4] = reducing reagent 20 mM, RNase mixture 200 ng/ml, 60° C. for 20 minutes

Row | SMILES | RNase mixture inactivation [1, 4] | inhibition of reverse transcription by AMV reverse transcriptase [2] | inhibition of reverse transcription by MMLV reverse transcriptase [3] | inhibition of SP6 RNA polymerase transcription (SP6 RNA polymerase) | inhibition of T3 RNA polymerase transcription (T3 RNA polymerase) | inhibition of T7 RNA polymerase transcription (T7 RNA polymerase) | DNase I activity after reducing/heat treatment (DNase I) | RNase mixture inactivation ([1]; 10 mM cysteine, RNase mixture 200 ng/ml, 1 mM sodium citrate (pH 6.4), 68° C. for 20 minutes) | RNase mixture inactivation ([1]; 20 mM cysteine, RNase mixture 200 ng/ml, 1 mM sodium citrate (pH 6.4), 68° C. for 20 minutes) | RNase mixture inactivation ([1]; 40 mM cysteine, RNase mixture 200 ng/ml, 1 mM sodium citrate (pH 6.4), 68° C. for 20 minutes) | RNase mixture inactivation ([1]; 60 mM cysteine, RNase mixture 200 ng/ml, 1 mM sodium citrate (pH 6.4), 68° C. for 20 minutes) | RNase mixture inactivation ([1]; heated DTT diluted to 20 mM, RNase mixture 200 ng/ml in water, 60° C. for 20 minutes)
1 | O[C@H](CS)[C@@H](O)CS [DTE, dithioerythritol] | inactivate RNase activity completely | not inhibited | not inhibited | None of the three polymerases were inhibited | None of the three polymerases were inhibited | None of the three polymerases were inhibited | not affected | – | – | – | – | –
2 | N[C@@H](CS)C(=O)O [cysteine] | – | – | – | – | – | – | – | inactivated | inactivated | inactivated | inactivated | –
3 | OC1CSSCC1O (stereo not shown) [oxidized DTT] | – | – | – | – | – | – | – | – | – | – | – | did not inactivate
4 | OCCS [β-mercaptoethanol] | inactivate RNase activity completely | not inhibited | not inhibited | None of the three polymerases were inhibited | None of the three polymerases were inhibited | None of the three polymerases were inhibited | not affected | – | – | – | – | –
